The values below come from US9896445B2, “Heterocyclic inhibitors of ERK1 and ERK2 and their use in the treatment of cancer” (Asana Biosciences, LLC, priority 2015, dated 2018).

For series [1], the target named is T1, ERK2 (Homo sapiens, UniProt P28482).
T1 construct: purchased Jubilant Biosys
The experiment in a line: ERK2 HTRF (biochemical) assay. As to conditions: HTRF. The method in brief:
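Readout was time-resolved FRET between europium anti-phospho-MBP and streptavidin-APC after a 60-min room-temperature kinase step. That step used ERK2 (25 nM in enzyme mix), biotinylated MBP peptide (1 uM) and ATP (24 uM) from the substrate mix, in pH 7.5 Tris buffer.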
(In general: TR-FRET usually uses a lanthanide donor and a delayed reading to cut background.)

The test system of series [2] is human melanoma xenograft model (A375) harboring B-RAF V600E mutation. Put plainly: A375 human melanoma xenograft model, tumor growth inhibition. Format: in vivo, mice. The procedure: (§1) In Vivo Studies in Tumor Xenograft Models
(§2) Tumor Cell Implantation and Randomization of Animals
(§3) Foxn1 nu/nu strain of female mice (obtained from Charles River Laboratories, USA), 8-10 weeks of age, body weight range 23-25 g, were used for the tumor xenograft efficacy studies. Human cancer cell lines (such as melanoma A375, colorectal HT29, pancreatic BxPC3, colorectal HCT116, and lung A549) were first grown in vitro, and then about five million (5×10^6) of these cells in 100 μL of serum free medium were mixed with an equal amount of matrigel, and the entire mixture was injected subcutaneously at the right flank region of mice. The tumors were measured with Vernier calipers periodically after the first week of injection. When the tumor volume reached 120-150 mm^3 (about 3-4 weeks after injection) the animals were randomized into different groups so that their tumor volume was approximately the same in all groups.
(§4) Determination of In Vivo Efficacy of Tumor Growth Inhibition
(§5) For PO dosing, the compounds were prepared in a formulation containing 0.5% Methyl cellulose and 0.01% Tween 80. For IV, SC, or IP dosing, the compounds were prepared in 6% solutol-ethanol (1:1), 6% DMSO and 88% saline. Animals were dosed with compounds prepared in specific formulations via PO, IP or SC route either QD or BID at the required doses. Tumors size and body weights were measured twice or thrice in a week. Tumors were harvested at the end of the study after euthanizing the animals according to approved protocols. […]
(§6) Changes in tumor volume (Δ volumes) for each treated (T) and control (C) group were calculated by subtracting the mean tumor volume on the first day of treatment (starting day) from the mean tumor volume on the specified observation day. […]
(§7) Percentage tumor growth inhibition was calculated as [100−% T/C]. Percentage body weight change was calculated as [(Body weight on specified observation day−Body weight on starting day)/Body weight on starting day]×100.

Series [3] concerns human colon cancer xenograft model (HCT116; harboring KRAS mutation). Put plainly: HCT116 human colon cancer xenograft model, tumor growth inhibition. It is filed as in vivo, mice. As to conditions: 50 mg/kg BID orally for 24 days. The procedure: as §1, §2
as §3, with “When the tumor volume reached 120-150 mm^3 (about 3-4 weeks after injection) the animals were randomized into different groups so that their tumor volume was approximately the same in all groups.” left out
(§8) For PO dosing, the compounds were prepared in a formulation containing 0.5% Methyl cellulose and 0.01% Tween 80. […] Tumors size and body weights were measured twice or thrice in a week. […]
as §6, §7
(In general: A xenograft is tissue or cells of one species grown in another, often human tumour cells in immunodeficient mice.)

For series [4], the target named is T2, ERK1 (Homo sapiens, UniProt P27361).
T2 construct: purchased Jubilant Biosys
T2 sequence (P27361 whole entry): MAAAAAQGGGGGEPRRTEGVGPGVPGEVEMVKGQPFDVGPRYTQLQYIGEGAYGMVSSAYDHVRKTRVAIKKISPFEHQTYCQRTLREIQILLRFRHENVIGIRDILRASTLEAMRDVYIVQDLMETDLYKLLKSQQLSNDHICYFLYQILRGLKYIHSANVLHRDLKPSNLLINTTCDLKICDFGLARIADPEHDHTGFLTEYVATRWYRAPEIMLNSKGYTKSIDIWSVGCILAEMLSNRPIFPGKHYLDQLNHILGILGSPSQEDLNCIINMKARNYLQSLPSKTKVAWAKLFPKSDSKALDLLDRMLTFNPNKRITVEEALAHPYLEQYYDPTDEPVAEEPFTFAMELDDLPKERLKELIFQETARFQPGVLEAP
The experiment in a line: ERK1 HTRF (biochemical) assay. As to conditions: HTRF. As for the experimental part: ERK1 and ERK2 HTRF (Biochemical) Assays
These assays employed a homogeneous time resolved fluorescence (HTRF) technique. […] The plate was incubated at room temperature for 60 min with shaking. […] The IC50 values (half maximal inhibitory concentration values) were subsequently determined using a sigmoidal dose-response curve (variable slope) in GraphPad Prism® 5 software.

Series [5] has as its system HCT116 (colorectal carcinoma, K Ras G13D) cells. The experiment in a line: Cell proliferation (Alamar Blue) assay, HCT116. Format: cell-based, human. As to conditions: Homo sapiens, HCT-116, HCT116 cells. The procedure:
Cell Proliferation (Alamar Blue) Assay
HT-29 (colorectal carcinoma, B-RafV600E), HCT116 (colorectal carcinoma, K Ras G13D), A375 (melanoma, B-RafV600E) and SK-Mel2 (melanoma, NRAS Q61R) cells (obtained from ATCC, USA) were seeded (5000 cells/well) in 96-well tissue culture plate and incubated at 37° C./5% CO2 for 16-24 hours. The cells were then treated with compounds, at concentrations typically from 0.0005 to 10 uM prepared in 3-fold serial dilutions. The plates were then incubated for 72 h at 37° C./5% CO2 in a moist environment. Then Alamar Blue™ reagent (final concentration 1×) was added to each well and incubated for 1-3 h at 37° C./5% CO2. The plates were read on fluorescence reader at 540 nm excitation and 590 nm emission wavelengths. The IC50 values were subsequently determined using a sigmoidal dose-response curve (variable slope) using GraphPad Prism® 5 software.
In general terms: The colour change of resazurin is a common sign of viable cells or microbes.

For series [6], the system named is phospho-RSK (the downstream target of ERK1/2). Put plainly: Pharmacodynamic assay, phospho-RSK in A375 tumor samples. As to conditions: A375 tumor samples harvested at 1 h after dosing at 50 mg/kg PO, compared to vehicle control. It is filed as in vivo, mice. As for the experimental part: as §3, §5
The test system of series [7] is human colon cancer xenograft model (HT-29) harboring B-RAF V600E mutation. Put plainly: HT-29 human colon cancer xenograft model, tumor growth inhibition. It is filed as in vivo, mice. As to conditions: HT-29 xenograft. The procedure:
as §1, §2
as §3, with “When the tumor volume reached 120-150 mm^3 (about 3-4 weeks after injection) the animals were randomized into different groups so that their tumor volume was approximately the same in all groups.” left out
as §8, §6, §7

Series [8] relates to human pancreatic carcinoma xenograft model, BxPC3 (wild type KRAS). Put plainly: BxPC3 human pancreatic carcinoma xenograft model, tumor growth inhibition. Format: in vivo, mice. As for the experimental part: as §1, §2
as §3, with “When the tumor volume reached 120-150 mm^3 (about 3-4 weeks after injection) the animals were randomized into different groups so that their tumor volume was approximately the same in all groups.” left out
as §8, §6, §7

Series [9] relates to human lung carcinoma xenograft model (A549; harboring KRAS mutation). Put plainly: A549 human lung carcinoma xenograft model, tumor growth inhibition. It is filed as in vivo, mice. As to conditions: 50 mg/kg BID orally for 20 days. The procedure: as §1, §2, §3, §4, §5, §6, §7
[10] abbreviates: 50 mg/kg BID orally for 19 days.

T1 sequence (P28482 whole entry): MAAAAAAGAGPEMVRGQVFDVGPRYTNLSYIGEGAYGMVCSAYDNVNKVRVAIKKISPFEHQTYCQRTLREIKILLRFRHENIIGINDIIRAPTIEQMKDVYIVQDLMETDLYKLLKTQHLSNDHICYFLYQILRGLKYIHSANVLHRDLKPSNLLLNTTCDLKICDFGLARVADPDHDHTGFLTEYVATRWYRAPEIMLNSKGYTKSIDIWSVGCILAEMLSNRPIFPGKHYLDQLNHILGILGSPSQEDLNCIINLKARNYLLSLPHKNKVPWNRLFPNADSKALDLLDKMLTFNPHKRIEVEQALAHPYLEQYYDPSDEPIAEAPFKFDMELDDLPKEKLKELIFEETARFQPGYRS

With `Cc1cnc(NC2CCOCC2)nc1-n1cnc(C(=O)N[C@H](CN)c2cccc(Cl)c2)c1` (single isomer, unassigned) [Compound 225a], the IC50 (in general, the concentration needed to halve the response being measured) in series [1] was not above 50 nM; in [4], less than 50 nM. Further, the body weight loss entry in [2] (setting [10]) and in series [3] was “no significant body weight loss” each time.

As to `Cc1cnc(Nc2ccc(F)cc2)cc1-n1cnc(C(=O)NC(CN)c2ccccc2)c1` (single isomer, unassigned) [Compound 227, N-(2-amino-1-phenylethyl)-1-(2-((4-fluorophenyl)-amino)-5-methyl-pyridin-4-yl)-1H-imidazole-4-carboxamide], the IC50 in series [5] was more than 2500 nM; in [1], not above 50 nM; in series [4], less than 50 nM.

As for `Cc1cnc(NC2CCOCC2)nc1-n1cnc(C(=O)NC(CO)c2cccc(Cl)c2)c1` (stereo not drawn) [Compound 201, N-(1-(3-chlorophenyl)-2-hydroxyethyl)-1-(5-methyl-2-((tetrahydro-2H-pyran-4-yl)amino)pyrimidin-4-yl)-1H-imidazole-4-carboxamide], the “inhibition of phospho-RSK” value in series [6] was “about 66%”. For the same compound, the body weight loss result in series [7] (50 mg/kg BID orally for 20 days) and in [8] (50 mg/kg BID orally for 25 days) was “no significant body weight loss” each time. Moreover, the tumor growth inhibition result in series [7] (dosed orally at 50 mg/kg BID for 20 days) is “approximately 50%”; in series [8] (dosed orally at 50 mg/kg BID for 25 days), “about 63%”. The IC50 is not above 50 nM in [1] and less than 50 nM in [4].

Consider `Cc1cnc(NC2CCOCC2)nc1-n1cnc(C(=O)N[C@H](CO)c2cccc(Cl)c2)c1` [Compound 211, (S)-N-(1-(3-chlorophenyl)-2-hydroxyethyl)-1-(5-methyl-2-((tetrahydro-2H-pyran-4-yl)amino)pyrimidin-4-yl)-1H-imidazole-4-carboxamide], for which the melting point – broadly, the temperature, or range, at which the solid turns liquid – came to 145 °C. Also, the “inhibition of phospho-RSK” value in [6] was approximately 84%. In addition, the IC50 in series [1] is not above 50 nM. Moreover, the body weight loss result in [2] (50 mg/kg BID orally for 17 days) is “no significant body weight loss”. In addition, the IC50 in [4] is less than 50 nM.

In the case of `Cc1cnc(NC2CC(F)(F)C2)nc1-n1cnc(C(=O)N[C@H](CN)c2cccc(Cl)c2)c1` [Example 259, (S)-N-(2-amino-1-(3-chlorophenyl)-ethyl)-1-(2-((3,3-difluorocyclobutyl)amino)-5-methyl-pyrimidin-4-yl)-1H-imidazole-4-carboxamide], the body weight loss result in [2] (setting [10]) and in series [3] was “no significant body weight loss” in each case.

As to `Cc1cnc(NC2CCOCC2)nc1-n1cnc(C(=O)N[C@H](CN)c2cccc(Cl)c2)c1.O=S(=O)(O)c1ccccc1` [Example 300, (S)-N-(2-amino-1-(3-chlorophenyl)-ethyl)-1-(5-methyl-2-((tetrahydro-2H-pyran-4-yl)amino)-pyrimidin-4-yl)-1H-imidazole-4-carboxamide benzenesulfonic acid salt], in [9], the body weight loss result is listed as “no significant body weight loss”.

As to `Cc1cnc(NC2CCOCC2)nc1-n1cnc(C(=O)N[C@H](CN)c2cc(F)cc(Cl)c2)c1.O=S(=O)(O)c1ccccc1` [Example 302, (S)-N-(2-amino-1-(3-chloro-5-fluoro-phenyl)ethyl)-1-(5-methyl-2-((tetrahydro-2H-pyran-4-yl)amino)-pyrimidin-4-yl)-1H-imidazole-4-carboxamide benzenesulfonic acid salt], the body weight loss result in series [9] was “no significant body weight loss”.

Take `Cc1cnc(NC2CC(F)(F)C2)nc1-n1cnc(C(=O)N[C@H](CN)c2cccc(Cl)c2)c1.O=S(=O)(O)c1ccccc1` [Example 304, (S)-N-(2-amino-1-(3-chlorophenyl)-ethyl)-1-(2-((3,3-difluorocyclobutyl)amino)-5-methyl-pyrimidin-4-yl)-1H-imidazole-4-carboxamide benzenesulfonic acid salt]: the body weight loss result in [9] is “no significant body weight loss”.
